Assay results as given in patent US10413535B2, “Pharmaceutical compositions comprising an integrin ALPHA4 antagonist for use in treating ocular inflammatory conditions” (AXEROVISION, INC., priority 2015, dated 2019).

What was measured:
[1] = test system: RPMI 8866 binding to VCAM-1; assay: VCAM cell adhesion assay, RPMI 8866 cells; assay type: cell-based; conditions: Homo sapiens; RPMI 8866 cells to VCAM-1; read-out: Inhibition of cell adhesion (IC50)
Description: (§1) Jurkat J6 cells (human lymphoblast cell line) were grown as a suspension culture in RPMI 1640 supplemented with FCS (10%) and glutamine (2 mM). RPMI8866 cells (human B lymphoid cell line) were grown as a suspension culture in RPMI 1640 supplemented with FCS (10%) and glutamine (2 mM). RBL-2H3 cells (rat basophilic cell line) were cultured in Eagle's MEM plus Earles salts supplemented with 2 mM L-glutamine, 1 mM sodium pyruvate, 1× non-essential amino acids, 1 mM Na pyruvate 10% heat inactivated foetal calf serum.
Polystyrene 96-well microtitre plates were coated with IgG at a concentration of 0.05 mg/mL in bicarbonate buffer for 2 hours at 37° C. The solution was aspirated and the plates washed twice with PBS. The plates were then incubated overnight at 4° C. with a 1:4000 dilution of VCAM-1 of 3% BSA in PBS. Prior to use the VCAM-1 was aspirated and the plates washed twice with PBS.
J6 or RPMI cells (as required) were labelled with the fluorescent dye BCECF-AM (10 μM and 6×10^6 cells/mL) for 10 min at 37° C. before the excess was removed by centrifugation at 500 g for 5 min and the cells resuspended at a cell concentration of 1.2×10^7 cells/mL in HBSS. Equal volumes HBSS containing the compound of formula I (over concentration range 38.1 pM to 10 μM) and cells were added to the VCAM-1 coated plates. […] The plates were counted in a Wallac Viktor.

α4β1-CS-1 = target: T1, α4β1-CS-1 (Homo sapiens, UniProt P05556+P13612); assay: CS-1 cell adhesion assay, Jurkat J6 cells; assay type: cell-based; conditions: J6 cells to CS-1; read-out: Inhibition of cell adhesion (IC50)
T1 construct: characterized in human J6 cells which express VLA-4; endogenous in cells; host or cells: Jurkat J6 cells (human lymphoblast cell line)
T1 sequence (P13612 34-1032): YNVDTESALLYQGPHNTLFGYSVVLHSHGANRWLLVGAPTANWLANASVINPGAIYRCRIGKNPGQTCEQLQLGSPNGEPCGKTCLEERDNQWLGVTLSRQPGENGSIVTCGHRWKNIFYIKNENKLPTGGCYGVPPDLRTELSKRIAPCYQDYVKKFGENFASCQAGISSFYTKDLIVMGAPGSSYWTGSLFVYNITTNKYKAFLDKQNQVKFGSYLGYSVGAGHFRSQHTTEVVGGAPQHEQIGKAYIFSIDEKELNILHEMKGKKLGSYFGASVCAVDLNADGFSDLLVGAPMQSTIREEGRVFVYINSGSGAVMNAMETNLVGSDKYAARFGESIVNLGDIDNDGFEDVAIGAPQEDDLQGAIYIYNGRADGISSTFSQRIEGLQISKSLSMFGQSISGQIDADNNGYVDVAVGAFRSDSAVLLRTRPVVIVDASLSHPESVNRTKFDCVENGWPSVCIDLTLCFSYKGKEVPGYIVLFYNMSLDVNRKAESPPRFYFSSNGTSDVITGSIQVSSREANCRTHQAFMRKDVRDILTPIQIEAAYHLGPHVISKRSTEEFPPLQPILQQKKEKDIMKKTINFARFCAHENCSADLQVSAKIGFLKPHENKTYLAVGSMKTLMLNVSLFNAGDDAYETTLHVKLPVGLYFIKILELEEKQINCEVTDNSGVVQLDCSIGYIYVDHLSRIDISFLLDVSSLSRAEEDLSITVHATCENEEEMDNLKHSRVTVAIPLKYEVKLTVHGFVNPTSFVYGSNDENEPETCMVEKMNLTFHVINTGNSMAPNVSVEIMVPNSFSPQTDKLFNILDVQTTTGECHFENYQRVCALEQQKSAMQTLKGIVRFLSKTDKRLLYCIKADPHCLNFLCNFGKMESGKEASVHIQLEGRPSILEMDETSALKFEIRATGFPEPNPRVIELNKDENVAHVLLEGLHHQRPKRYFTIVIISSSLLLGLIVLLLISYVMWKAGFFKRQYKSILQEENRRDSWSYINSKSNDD
T1 sequence (P05556 21-798): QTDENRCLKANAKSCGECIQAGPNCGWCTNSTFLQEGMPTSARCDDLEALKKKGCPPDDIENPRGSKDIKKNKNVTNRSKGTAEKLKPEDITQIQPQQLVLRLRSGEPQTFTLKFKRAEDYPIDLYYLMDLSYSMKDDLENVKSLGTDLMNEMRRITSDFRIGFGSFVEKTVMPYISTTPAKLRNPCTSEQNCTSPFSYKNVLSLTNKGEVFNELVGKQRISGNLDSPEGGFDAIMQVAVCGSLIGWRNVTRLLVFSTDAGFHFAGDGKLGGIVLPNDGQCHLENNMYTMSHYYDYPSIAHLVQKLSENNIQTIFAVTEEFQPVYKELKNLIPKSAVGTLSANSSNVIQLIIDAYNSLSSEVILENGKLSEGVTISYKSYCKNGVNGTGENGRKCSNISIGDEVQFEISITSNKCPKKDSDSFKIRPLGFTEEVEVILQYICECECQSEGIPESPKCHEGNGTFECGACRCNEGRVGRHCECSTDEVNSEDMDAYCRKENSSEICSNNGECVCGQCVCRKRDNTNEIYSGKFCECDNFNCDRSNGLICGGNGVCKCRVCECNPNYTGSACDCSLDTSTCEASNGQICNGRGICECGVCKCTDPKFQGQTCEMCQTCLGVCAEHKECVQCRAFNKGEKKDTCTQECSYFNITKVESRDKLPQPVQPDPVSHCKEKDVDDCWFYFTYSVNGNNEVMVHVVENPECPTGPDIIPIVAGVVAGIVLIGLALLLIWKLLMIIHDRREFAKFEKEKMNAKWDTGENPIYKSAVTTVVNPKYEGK
Description: as §1
Polystyrene 96-well microtitre plates were coated with CS-1 (connecting segment 1, a cell attachment domain of fibronectin) at a concentration of 0.01 mg/mL in bicarbonate buffer overnight at 4° C. The solution was aspirated and the plates washed twice with PBS. The plates were then incubated at room temperature in the presence of 3% BSA for 60 min, ‘flicked’ to expel the BSA and washed twice in bicarbonate buffer. J6 or RPMI cells (as required) were labelled with the fluorescent dye BCECF-AM (10 μM and 6×10^6 cells/mL) for 10 min at 37° C. before the excess was removed by centrifugation at 500 g for 5 min and the cells resuspended at a cell concentration of 1.2×10^7 cells/mL in HBSS. Equal volumes of HBSS containing the compound of formula I (over concentration range 19.0 pM to 5 μM) and cells were added to the CS-1 coated plates. […] The plates were counted in a Wallac Viktor.

Beagle Dogs = assay: 13-week topical ocular toxicity study in Beagle dogs; assay type: in vivo, dog
Description: GW559090A was given to Beagle Dogs by topical ocular administration for 13 weeks. Animals were dosed six or twelve times per day, with one hour between doses. Treatment groups were: (1) vehicle (12 times a day), (2) 30 mg/mL/occasion given six times a day, (3) 50 mg/mL/occasion given six times a day, or (4) 50 mg/mL/occasion, given 12 times a day.
GW559090A was formulated as a stock solution in 25 mM phosphate buffer with 0.5% sodium chloride to provide a 50 mg/mL stock solution, which was used for administration to Groups 3 or 4, or further diluted with 25 mM phosphate buffer with 0.75% sodium chloride to provide a 30 mg/mL solution for administration to Group 2.
During the 13 week treatment period dogs received daily topical ocular doses of GW559090 or vehicle (12 times a day) at a constant dose volume of 0.06 mL (given 6 or 12 times a day, with one hour between doses). The test article formulation or vehicle was carefully dropped into the everted lower eyelid of the left eye from a suitable distance, to prevent contact of the positive displacement pipette with the eye. The lower and upper lids were then gently held together for approximately five seconds, to prevent loss of dose and aid even distribution across the external ocular surface. The un-dosed eye was not manipulated at any time and served as a within animal untreated control site.

[2] = test system: J6 cell adhesion to MAdCAM; assay: MAdCAM cell adhesion assay, J6 cells; assay type: cell-based, human
Description: as §1
Polystyrene 96-well microtitre plates were coated with IgG at a concentration of 0.05 mg/mL in bicarbonate buffer for 2.5 hours at 37° C. The solution was aspirated and the plates washed twice with PBS. The plates were then incubated overnight at 4° C. with MAdCAM at a concentration of 204.0 ng/mL in 3% BSA in PBS. Prior to use the MAdCAM was aspirated and the plates washed twice with PBS. J6 or RPMI cells (as required) were labelled with the fluorescent dye BCECF-AM (10 μM and 6×10^6 cells/mL) for 10 min at 37° C. before the excess was removed by centrifugation at 500 g for 5 min and the cells resuspended at a cell concentration of 1.2×10^7 cells/mL in HBSS. Equal volumes of HBSS containing the compound of formula I (over concentration range 38.1 pM to 10 μM) and cells were added to the MAdCAM coated plates. […] The plates were counted in a Wallac Viktor.

[3] = test system: non-α4 integrins, including LFA-1; conditions: cited from earlier work
[4] = topical ocular 13 weeks, 30 or 50 mg/mL/occasion six times daily or 50 mg/mL/occasion 12 times daily

Question: With Cc1ccccc1OCC(=O)N[C@@H](CC(C)C)C(=O)N[C@@H](Cc1ccc(OC(=O)N2CCC(C(N)=O)CC2)cc1)C(=O)O [GW559090, (2S)-3-[4-({[4-(Aminocarbonyl)-1-piperidinyl]carbonyl}oxy)phenyl]-2-[((2S)-4-methyl-2-{[2-(2-methylphenoxy)acetyl]amino}pentanoyl)amino]propanoic acid] as the molecule, how does the IC50 [1] read?
Answer: 4.81 nM

Question: What about the IC50 (α4β1-CS-1) of the same molecule?
Answer: 8.04 nM

Question: What about the “No-Observed-Adverse-Effect level (NOAEL)” value (Beagle Dogs; given 12 times a day, 13 weeks) of the same molecule?
Answer: 50 mg/mL/occasion

Question: And the “Ocular change or systemic toxicity” value (Beagle Dogs; [4])?
Answer: no ocular change or systemic toxicity

Question: And the Tolerability (Beagle Dogs; [4])?
Answer: well-tolerated

Question: What about the “Inhibition of J6 cell adhesion to MAdCAM (curve form)” value [2] of the same molecule?
Answer: biphasic

Question: What about the “Selectivity vs. non-α4 integrins” value [3] of the same molecule?
Answer: highly selective
